Values quoted from earlier work in patent US20110104281A1, “METHOD FOR TREATING PAIN USING A SUBSTITUTED 2-AMINOTETRALIN COMPOUND” (UCB PHARMA GMBH, priority 2006, published 2011).

Key:
D1 receptor = D1 receptor (Homo sapiens, UniProt P21728); details: cited from earlier work
fibromyalgia patients = details: preliminary clinical studies; cited from earlier work
D3 receptor = D3 receptor (Homo sapiens, UniProt P35462); details: cited from earlier work
5-HT1A receptor = 5-HT1A receptor (Homo sapiens, UniProt P08908); details: cited from earlier work
5-HT1A receptor, sequence (P08908 whole entry): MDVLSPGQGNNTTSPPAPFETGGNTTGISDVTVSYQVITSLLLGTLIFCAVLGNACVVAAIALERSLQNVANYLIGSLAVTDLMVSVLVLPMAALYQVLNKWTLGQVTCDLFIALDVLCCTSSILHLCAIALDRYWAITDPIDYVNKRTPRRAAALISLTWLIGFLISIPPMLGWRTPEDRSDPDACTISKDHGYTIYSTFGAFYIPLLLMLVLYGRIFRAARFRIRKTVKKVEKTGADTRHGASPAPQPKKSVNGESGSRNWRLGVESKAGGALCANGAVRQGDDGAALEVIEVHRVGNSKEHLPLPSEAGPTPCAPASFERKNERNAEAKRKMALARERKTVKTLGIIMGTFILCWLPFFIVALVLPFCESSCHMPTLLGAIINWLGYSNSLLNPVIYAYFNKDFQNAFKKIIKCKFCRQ

5-HT7 = 5-HT7 (Homo sapiens, UniProt P34969); details: cited from earlier work
5-HT7, sequence (P34969 whole entry, species assumed): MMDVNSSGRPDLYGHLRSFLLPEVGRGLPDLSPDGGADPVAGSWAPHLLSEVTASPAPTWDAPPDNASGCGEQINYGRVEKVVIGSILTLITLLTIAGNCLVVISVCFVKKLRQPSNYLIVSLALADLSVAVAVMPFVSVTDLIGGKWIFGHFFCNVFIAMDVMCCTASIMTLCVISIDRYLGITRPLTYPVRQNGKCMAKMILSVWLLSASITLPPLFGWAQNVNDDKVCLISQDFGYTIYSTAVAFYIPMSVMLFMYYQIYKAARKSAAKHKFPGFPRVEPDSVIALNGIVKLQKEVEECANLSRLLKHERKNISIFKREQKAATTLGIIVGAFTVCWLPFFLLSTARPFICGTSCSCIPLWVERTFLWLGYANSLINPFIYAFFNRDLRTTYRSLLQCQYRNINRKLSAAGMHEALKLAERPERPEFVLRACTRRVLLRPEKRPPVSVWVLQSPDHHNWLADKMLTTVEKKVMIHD

α2C = α2C (Homo sapiens, UniProt P18825); details: cited from earlier work
α2C, sequence (P18825 whole entry): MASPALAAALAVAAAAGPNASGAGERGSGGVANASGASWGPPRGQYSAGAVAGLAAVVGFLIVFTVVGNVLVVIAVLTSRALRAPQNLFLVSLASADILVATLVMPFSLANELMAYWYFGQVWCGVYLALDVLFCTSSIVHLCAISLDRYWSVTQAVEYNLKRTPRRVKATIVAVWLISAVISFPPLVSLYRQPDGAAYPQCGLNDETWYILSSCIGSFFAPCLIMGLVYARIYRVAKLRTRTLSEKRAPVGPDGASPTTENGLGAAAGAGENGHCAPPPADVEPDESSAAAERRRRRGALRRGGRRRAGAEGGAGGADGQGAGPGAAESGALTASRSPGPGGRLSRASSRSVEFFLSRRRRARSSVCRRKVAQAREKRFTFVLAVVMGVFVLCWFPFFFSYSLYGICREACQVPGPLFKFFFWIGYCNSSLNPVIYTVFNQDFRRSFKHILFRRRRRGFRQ

α2B receptor = α2B receptor (Homo sapiens, UniProt P18089); details: cited from earlier work
α2B receptor, sequence (P18089 whole entry): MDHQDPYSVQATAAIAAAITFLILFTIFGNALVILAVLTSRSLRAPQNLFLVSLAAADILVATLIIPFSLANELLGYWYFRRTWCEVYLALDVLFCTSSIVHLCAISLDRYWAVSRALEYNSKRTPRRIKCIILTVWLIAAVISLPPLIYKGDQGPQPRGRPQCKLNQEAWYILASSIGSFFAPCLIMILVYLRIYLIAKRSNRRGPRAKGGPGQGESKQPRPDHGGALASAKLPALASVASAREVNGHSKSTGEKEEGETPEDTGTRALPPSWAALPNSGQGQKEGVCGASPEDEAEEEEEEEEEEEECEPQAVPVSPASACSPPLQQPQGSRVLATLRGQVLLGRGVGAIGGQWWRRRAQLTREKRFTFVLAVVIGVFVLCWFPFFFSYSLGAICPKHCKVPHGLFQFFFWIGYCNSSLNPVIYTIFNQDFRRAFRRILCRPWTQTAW

D3 receptor, sequence (P35462 whole entry): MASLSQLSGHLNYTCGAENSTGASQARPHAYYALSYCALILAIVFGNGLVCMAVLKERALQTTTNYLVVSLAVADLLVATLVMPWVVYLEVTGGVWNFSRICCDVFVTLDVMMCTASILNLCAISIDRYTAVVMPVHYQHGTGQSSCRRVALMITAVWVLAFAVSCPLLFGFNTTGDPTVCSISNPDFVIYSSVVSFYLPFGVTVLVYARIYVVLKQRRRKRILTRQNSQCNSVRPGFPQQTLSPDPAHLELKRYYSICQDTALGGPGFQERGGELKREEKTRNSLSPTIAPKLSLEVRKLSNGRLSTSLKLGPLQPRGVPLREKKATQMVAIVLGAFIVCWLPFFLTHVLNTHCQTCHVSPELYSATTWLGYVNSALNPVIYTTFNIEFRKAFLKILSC
D1 receptor, sequence (P21728 whole entry): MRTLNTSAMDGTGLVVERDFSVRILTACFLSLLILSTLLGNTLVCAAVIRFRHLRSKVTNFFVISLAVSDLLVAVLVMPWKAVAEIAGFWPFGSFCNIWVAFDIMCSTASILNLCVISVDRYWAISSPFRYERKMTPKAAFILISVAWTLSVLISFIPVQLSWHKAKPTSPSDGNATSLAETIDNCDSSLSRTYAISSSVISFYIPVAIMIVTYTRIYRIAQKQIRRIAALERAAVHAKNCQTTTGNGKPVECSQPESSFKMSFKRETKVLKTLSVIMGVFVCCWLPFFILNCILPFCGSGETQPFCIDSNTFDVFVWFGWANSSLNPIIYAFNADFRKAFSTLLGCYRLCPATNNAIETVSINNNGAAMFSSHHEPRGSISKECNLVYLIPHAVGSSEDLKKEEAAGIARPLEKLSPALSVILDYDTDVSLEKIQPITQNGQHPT

SMILES	Affinity for D1 receptor (D1 receptor)	Pain in fibromyalgia patients (fibromyalgia patients)	Affinity for D3 receptor (D3 receptor)	Affinity / action at 5-HT1A receptor (5-HT1A receptor)	Affinity for 5-HT7 (5-HT7)	Affinity for α2C (α2C)	Affinity / action at α2B receptor (α2B receptor)
CCCN(CCC)CCc1cccc2c1CC(=O)N2 [ropinirole]	only weak or no affinity	shown to reduce pain	strongest affinity for D3	only weak or no affinity	only weak or no affinity	only weak or no affinity	only weak or no affinity
CCCN[C@H]1CCc2nc(N)sc2C1 [Pramipexole]	only weak or no affinity	shown to reduce pain	strongest affinity for D3	only weak or no affinity	only weak or no affinity	only weak or no affinity	only weak or no affinity
